Assay results taken from patent US11441138B2, “Method for selection of high M6P recombinant proteins” (Amicus Therapeutics, Inc., priority 2016, dated 2022).
Like-named read-outs stand apart in the source and are kept apart here.

Experiments:
CIMPR [1] = target: T1, CIMPR (Homo sapiens, UniProt P11717); test: CIMPR plate binding assay
Description: In addition to having a greater percentage of rhGAA that can bind to the CIMPR, it is important to understand the quality of that interaction. […] Briefly, CIMPR-coated plates were used to capture GAA. Varying concentrations of rhGAA were applied to the immobilized receptor and unbound rhGAA was washed off. The amount of remaining rhGAA was determined by GAA activity.

[2] = system: normal and Pompe fibroblast cell lines; test: Cellular uptake of rhGAA by fibroblasts (16-hr incubation, 4MU-α-Glucoside hydrolysis); format: cell-based; details: for concentration that saturates cellular receptors: normal and Pompe fibroblasts, 16-hr incubation
Description: The relative cellular uptake of ATB200 and Lumizyme® rhGAA were compared using normal and Pompe fibroblast cell lines. […] After 16-hr incubation, external rhGAA was inactivated with TRIS base and cells were washed 3-times with PBS prior to harvest. Internalized GAA measured by 4MU-α-Glucoside hydrolysis and was graphed relative to total cellular protein and the results appear in FIGS. 13A-13B.

[3] = Apparent plasma half-life in vivo
Gaa knockout mice [4] = test: Glycogen reduction in Gaa knockout mice, two IV bolus administrations; format: in vivo, mouse
Source text: Animals were given two IV bolus administrations (every other week); tissues were harvested two weeks after the last dose and analyzed for acid α-glucosidase activity and glycogen content.

Gaa knockout mice [5] = test: Muscle physiology and morphology in Gaa-knockout mice; format: in vivo, mouse; details: rhGAA 20 mg/kg IV every other week; miglustat 10 mg/kg oral 30 mins prior; compared to alglucosidase alfa
Description: Control mice were treated with vehicle alone. Soleus, quadriceps and diaphragm tissue is harvested two weeks after the last dose of recombinant human acid α-glucosidase. […] Semi-thin sections of quadriceps muscle embedded in epoxy resin (Epon) were stained with methylene blue and observed by […] (1000×) to determine the extent of the presence of vacuoles. […] Control mice were treated with vehicle alone. Cardiac muscle tissue was harvested two weeks after the last dose of recombinant human acid α-glucosidase and analyzed for glycogen levels, by staining with periodic acid-Schiff reagent (PAS), and for lysosome proliferation, by measuring levels of LAMP1.

[6] = system: adults with Pompe disease; test: Phase 1/2 study: safety; format: in vivo, human; details: no infusion-associated reactions to date
Description: (§1) Mean total GAA protein and miglustat PK results from the first 8 Cohort 1 patients through Visit 9 and the first 2 Cohort 3 patients were assessed.

[7] = Phase 1/2 study: plasma total GAA protein pharmacokinetics; design: species or system human; details: in vivo
GAA KO mice [8] = test: Glycogen clearance in GAA KO mice, 4 injections with or without miglustat (FIG. 15); format: in vivo, mouse; details: rhGAA 20 mg/kg IV every other week, miglustat 10 mg/kg PO 30 min prior where co-administered, 14 days after last dose
Source text: Tissues were collected 14 days after last enzyme dose for glycogen measurement.

[9] = system: Pompe fibroblasts and skeletal muscle myoblasts; test: Internalization by Pompe fibroblasts and skeletal muscle myoblasts; format: cell-based
GAA KO mice [10] = test: Muscle function in Gaa-knockout mice, longer-term studies; format: in vivo, mouse
CIMPR [11] = target: T1, CIMPR; test: CIMPR affinity chromatography of rhGAA (bound vs unbound GAA activity); format: binding; details: for CIMPR binding compared with ATB200 rhGAA: FIGS. 4A, 4B, 7A, 7B; for rhGAA bound to CIMPR / containing M6P (eluted with M6P) / rhGAA that did not bind to the CIMPR (GAA activity eluted prior to addition of M6P): fraction of total enzyme by GAA activity
Description: To evaluate the ability of the rhGAA in Myozyme® and Lumizyme®, the only currently approved treatments for Pompe disease, these rhGAA preparations were injected onto a CIMPR column (which binds rhGAA having M6P groups) and subsequently eluted with a free […] gradient. Fractions were collected in 96-well plate and GAA activity assayed by 4MU-α-glucose substrate. The relative amounts of bound and unbound rhGAA were determined based on GAA activity and reported as the fraction of total enzyme.
Multiple batches of the rhGAA according to the invention were produced in shake flasks and in perfusion bioreactors using CHO cell line GA-ATB-200 and CIMPR binding was measured.

[12] = Phase 1/2 study: plasma miglustat pharmacokinetics; format: in vivo, human; details: for half-life / Vd/F / AUC(0-inf) / AUC(0-t) / Cmax / Tmax: both sexes, human, plasma, po; for half-life / Vd/F / AUC(0-inf) / AUC(0-t) / Cmax / Tmax / CL/F: plasma miglustat; for half-life / Vd/F / CL/F: arithmetic mean; for Vd/F: read-out: Vz/F; for AUC(0-inf) / AUC(0-t) / Cmax: geometric mean; for Tmax: median
Description: as §1

ATB200 = ATB200 (Homo sapiens, UniProt P10253, H199R/R223H/V780I); test: Stabilization of ATB200 by miglustat; details: neutral pH of plasma
[13] = system: subjects with Pompe disease; details: cited from earlier work
[14] = 130 mg, Low (about 130 mg oral) MD
[15] = 130 mg, Low (about 130 mg oral) SD
[16] = 260 mg, High (about 260 mg oral) MD
[17] = 260 mg, High (about 260 mg oral) SD

T1 sequence (P11717 41-2491, species assumed): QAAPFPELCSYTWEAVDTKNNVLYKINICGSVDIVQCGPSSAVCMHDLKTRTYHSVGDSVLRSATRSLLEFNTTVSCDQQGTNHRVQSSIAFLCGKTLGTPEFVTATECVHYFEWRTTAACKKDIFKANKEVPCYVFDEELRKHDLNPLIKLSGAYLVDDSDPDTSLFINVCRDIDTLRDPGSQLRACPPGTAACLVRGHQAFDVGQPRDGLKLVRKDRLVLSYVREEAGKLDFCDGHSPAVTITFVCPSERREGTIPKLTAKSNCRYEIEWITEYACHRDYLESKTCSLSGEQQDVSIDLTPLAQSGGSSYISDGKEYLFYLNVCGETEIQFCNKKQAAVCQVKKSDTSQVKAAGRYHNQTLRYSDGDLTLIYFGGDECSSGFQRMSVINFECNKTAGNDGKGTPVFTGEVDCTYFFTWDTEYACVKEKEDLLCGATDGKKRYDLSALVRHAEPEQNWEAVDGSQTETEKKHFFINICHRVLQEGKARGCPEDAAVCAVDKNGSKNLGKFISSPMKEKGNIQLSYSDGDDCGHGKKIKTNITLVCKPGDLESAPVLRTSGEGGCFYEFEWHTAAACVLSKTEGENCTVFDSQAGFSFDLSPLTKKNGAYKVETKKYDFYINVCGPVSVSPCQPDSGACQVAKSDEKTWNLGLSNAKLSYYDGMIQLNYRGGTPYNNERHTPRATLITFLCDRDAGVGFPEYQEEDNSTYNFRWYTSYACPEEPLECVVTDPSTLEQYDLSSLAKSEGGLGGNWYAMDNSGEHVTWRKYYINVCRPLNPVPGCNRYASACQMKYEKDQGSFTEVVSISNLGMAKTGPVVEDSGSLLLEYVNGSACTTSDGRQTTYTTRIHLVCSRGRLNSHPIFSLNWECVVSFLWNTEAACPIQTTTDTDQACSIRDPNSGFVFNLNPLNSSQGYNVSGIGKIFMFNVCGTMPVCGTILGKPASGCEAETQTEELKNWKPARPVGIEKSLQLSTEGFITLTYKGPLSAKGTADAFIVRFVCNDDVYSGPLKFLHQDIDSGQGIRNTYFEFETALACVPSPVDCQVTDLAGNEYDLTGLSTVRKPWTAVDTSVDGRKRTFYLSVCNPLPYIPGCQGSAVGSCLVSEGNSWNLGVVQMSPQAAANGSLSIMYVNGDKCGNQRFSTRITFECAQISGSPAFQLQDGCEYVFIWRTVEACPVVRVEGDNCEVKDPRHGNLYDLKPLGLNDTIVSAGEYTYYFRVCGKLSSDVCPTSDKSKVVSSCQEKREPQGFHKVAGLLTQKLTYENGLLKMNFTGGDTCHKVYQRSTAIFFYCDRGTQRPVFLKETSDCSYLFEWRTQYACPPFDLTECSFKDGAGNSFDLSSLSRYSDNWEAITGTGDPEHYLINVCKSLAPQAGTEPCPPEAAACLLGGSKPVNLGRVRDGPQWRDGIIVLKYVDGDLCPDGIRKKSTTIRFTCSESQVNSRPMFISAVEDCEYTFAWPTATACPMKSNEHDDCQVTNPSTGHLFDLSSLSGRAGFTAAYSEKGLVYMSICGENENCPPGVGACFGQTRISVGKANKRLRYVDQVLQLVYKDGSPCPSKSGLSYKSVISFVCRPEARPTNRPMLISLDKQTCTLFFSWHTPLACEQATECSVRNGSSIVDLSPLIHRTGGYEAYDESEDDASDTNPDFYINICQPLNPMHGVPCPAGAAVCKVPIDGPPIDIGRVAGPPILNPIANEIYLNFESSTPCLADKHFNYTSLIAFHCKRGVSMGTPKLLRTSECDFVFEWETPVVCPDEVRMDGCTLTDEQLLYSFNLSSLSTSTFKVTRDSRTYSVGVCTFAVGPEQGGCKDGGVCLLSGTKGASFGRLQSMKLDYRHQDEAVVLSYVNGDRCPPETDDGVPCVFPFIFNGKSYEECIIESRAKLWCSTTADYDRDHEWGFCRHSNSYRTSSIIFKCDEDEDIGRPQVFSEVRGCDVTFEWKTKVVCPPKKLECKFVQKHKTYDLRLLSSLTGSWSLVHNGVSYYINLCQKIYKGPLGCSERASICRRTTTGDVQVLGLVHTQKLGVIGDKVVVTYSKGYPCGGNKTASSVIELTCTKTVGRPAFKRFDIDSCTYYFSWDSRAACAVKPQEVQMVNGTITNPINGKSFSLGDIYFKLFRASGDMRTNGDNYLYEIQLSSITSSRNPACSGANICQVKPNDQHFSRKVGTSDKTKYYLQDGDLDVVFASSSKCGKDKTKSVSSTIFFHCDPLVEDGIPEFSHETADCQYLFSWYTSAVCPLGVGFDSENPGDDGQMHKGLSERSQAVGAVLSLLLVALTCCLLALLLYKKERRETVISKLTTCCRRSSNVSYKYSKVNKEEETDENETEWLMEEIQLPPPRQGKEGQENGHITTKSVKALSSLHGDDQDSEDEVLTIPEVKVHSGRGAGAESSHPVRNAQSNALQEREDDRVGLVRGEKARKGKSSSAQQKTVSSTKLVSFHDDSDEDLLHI

ATB200: recombinant human acid α-glucosidase with high M6P content, expressed in CHO cells, described in co-pending application PCT/US2015/053252
CIMPR binding compared with Lumizyme® (CIMPR [1]; FIG. 12A): bound to CIMPR significantly better than Lumizyme®
Kd (CIMPR [1]; M6P receptor plate binding assays): 2 to 4 nM
internalization into normal and Pompe fibroblast cells ([2]; compared with Lumizyme® rhGAA): internalized to a greater degree than conventional Lumizyme® rhGAA
concentration that saturates cellular receptors [2]: about 20 nM
apparent plasma half-life (t1/2) [3]: ~0.75 h
depletion of tissue glycogen (Gaa knockout mice [4]; 5, 10 and 20 mg/kg, two IV bolus every other week, tissues two weeks after last dose): dose-dependent fashion
reduction of glycogen levels in skeletal muscles (Gaa knockout mice [4]; 10 and 20 mg/kg, compared to Lumizyme® 20 mg/kg): significantly better reduction of glycogen levels
lysosome proliferation (LAMP1) in heart, diaphragm and soleus (Gaa knockout mice [5]): reduction in lysosome proliferation
punctate glycogen levels (PAS) in heart and soleus (Gaa knockout mice [5]): reduction in punctate glycogen levels
safety and tolerability overall [6]: safe and well tolerated
volume of distribution (in words) ([7]; human): relatively high volume of distribution
AUC0-∞ ([7]; human, 5 mg/kg): 218 ng·h/mL
AUC(0-t) ([7]; human, 5 mg/kg): 215 ng·h/mL
Cmax ([7]; human, 5 mg/kg): 61 ng/mL
Tmax ([7]; human, 5 mg/kg): 3.8 h
Vss ([7]; human, 5 mg/kg): 4.62 L
αt1/2 ([7]; human, 5 mg/kg): 1.1 h
βt1/2 ([7]; human, 5 mg/kg): 1.9 h
AUC0-∞ ([7]; human, 10 mg/kg): 584 ng·h/mL
AUC(0-t) ([7]; human, 10 mg/kg): 578 ng·h/mL
Tmax ([7]; human, 10 mg/kg): 4.0 h
αt1/2 ([7]; human, 10 mg/kg): 1.6 h
βt1/2 ([7]; human, 10 mg/kg): 1.6 h
AUC0-∞ ([7]; human, 20 mg/kg): 1512 ng·h/mL
AUC(0-t) ([7]; human, 20 mg/kg): 1508 ng·h/mL
Tmax ([7]; human, 20 mg/kg): 4.0 h
αt1/2 ([7]; human, 20 mg/kg): 1.5 h
βt1/2 ([7]; human, 20 mg/kg): 2.1 h
CLT ([7]; 5 mg/kg): 2.1 L/h
CLT ([7]; 10 mg/kg): 1.59 L/h
CLT ([7]; 20 mg/kg): 1.22 L/h
relative reduction of glycogen in quadriceps and triceps skeletal muscle (GAA KO mice [8]): greater reduction of glycogen than Lumizyme®
Kuptake [9]: 7 to 14 nM
intracellular accumulation of dystrophin (GAA KO mice [10]; 6 months of administration, comparison with Lumizyme®): lowered intracellular accumulation of dystrophin

Lumizyme®: conventional rhGAA product (alglucosidase alfa) marketed by Genzyme
uptake efficiency constant (Kuptake) ([2]; extrapolated from uptake curves, FIG. 13C): 56 nM
concentration that saturates cellular receptors [2]: about 250 nM
CIMPR binding compared with ATB200 rhGAA (CIMPR [11]): significantly less CIMPR binding
rhGAA bound to CIMPR / containing M6P (eluted with M6P) (CIMPR [11]): 22%
rhGAA that did not bind to the CIMPR (GAA activity eluted prior to addition of M6P) (CIMPR [11]): 78%
functional muscle strength (grip strength and wire hang tests) (GAA KO mice [10]; 12 biweekly administrations, ERT 20 mg/kg, miglustat 10 mg/kg, from baseline): decline

Myozyme®: conventional rhGAA product (alglucosidase alfa) marketed by Genzyme
CIMPR binding compared with ATB200 rhGAA (CIMPR [11]): significantly less CIMPR binding
rhGAA bound to CIMPR / containing M6P (eluted with M6P) (CIMPR [11]): 27%
rhGAA that did not bind to the CIMPR (GAA activity eluted prior to addition of M6P) (CIMPR [11]): 73%

CCCCN1C[C@H](O)[C@@H](O)[C@H](O)[C@H]1CO [miglustat, (2R,3R,4R,5S)-1-butyl-2-(hydroxymethyl)piperidine-3,4,5-triol]
dose proportionality of plasma miglustat ([12]; 130 mg and 260 mg oral): dose-proportional kinetics
half-life [12, 14]: 5.9 h
Vd/F [12, 14]: 86.7 L
AUC(0-inf) [12, 14]: 13100 ng·h/mL
AUC(0-t) [12, 14]: 12300 ng·h/mL
Cmax [12, 14]: 1520 ng/mL
Tmax [12, 14]: 3 h
half-life [12, 15]: 5.6 h
Vd/F [12, 15]: 85.8 L
AUC(0-inf) [12, 15]: 12600 ng·h/mL
AUC(0-t) [12, 15]: 11800 ng·h/mL
Cmax [12, 15]: 1490 ng/mL
Tmax [12, 15]: 3.5 h
half-life [12, 16]: 5.3 h
Vd/F [12, 16]: 81 L
AUC(0-inf) [12, 16]: 26000 ng·h/mL
AUC(0-t) [12, 16]: 25000 ng·h/mL
Cmax [12, 16]: 3570 ng/mL
Tmax [12, 16]: 3 h
half-life [12, 17]: 5.7 h
Vd/F [12, 17]: 86.3 L
AUC(0-inf) [12, 17]: 25900 ng·h/mL
AUC(0-t) [12, 17]: 24000 ng·h/mL
Cmax [12, 17]: 3060 ng/mL
Tmax [12, 17]: 3.5 h
CL/F ([12]; High (about 260 mg oral) MD): 10.3 L/h
CL/F ([12]; High (about 260 mg oral) SD): 10.6 L/h
CL/F ([12]; Low (about 130 mg oral) MD): 10.2 L/h
CL/F ([12]; Low (about 130 mg oral) SD): 10.6 L/h
effect on unfolded ATB200 protein / active conformation (ATB200): decrease the percentage of unfolded ATB200 protein

[199-arginine,223-histidine]prepro-α-glucosidase (human) [alglucosidase alfa]
apparent plasma half-life (t1/2) [3]: ~1 h
survival in infantile onset Pompe disease ([13]; compared to historical controls): significantly improve survival
effect on 6-Minute Walk Test (6MWT) and forced vital capacity (FVC) in late onset Pompe disease ([13]; compared to placebo): statistically significant, if modest, effect
